From patent publication US6362190B1, “Method for treating inflammatory diseases by administering a thrombin inhibitor” (Merck & Co., Inc., priority 1998, dated 2002)

Test system: adjuvant-induced arthritis (Mycobacterium butyricum) in female Lewis rats
Assay: Development and severity of adjuvant-induced arthritis in female Lewis rats (paw volumes, radiographic scores)
Type: in vivo
Settings: for Radiographic total scores of secondary paws compared with vehicle treated rats, in words: day 21, secondary paws; for Radiographic scores, Primary paws / Radiographic scores, Secondary paws / Increase in primary foot volume, Day 21 / Increase in secondary foot volume, Day 21: day 21; for Radiographic scores, Primary paws / Radiographic scores, Secondary paws: total score, maximum 26 per foot, high score = high inflammation, thrombin inhibitor 50 mg/kg/day, Indomethacin 1 mg/kg/day oral; for Increase in primary foot volume, Day 14 / Increase in primary foot volume, Day 21: primary (adjuvant-injected) paw; for Increase in primary foot volume, Day 14 / Increase in primary foot volume, Day 21 / Increase in secondary foot volume, Day 14 / Increase in secondary foot volume, Day 21: oral gavage daily, thrombin inhibitor 50 mg/kg, Indomethacin 1 mg/kg; for Increase in primary foot volume, Day 14: mercury displacement plethysmography; for Increase in secondary foot volume, Day 14 / Increase in secondary foot volume, Day 21: secondary (contralateral, not injected) paw
Method: The thrombin inhibitor 3-(2-phenylethylamino)-6-methyl-1-(2-amino-6-methyl-5-methylene-carboxamidomethylpyridinyl)-2-pyrazinone was evaluated to determine its effect on induced arthritis. Arthritis was induced by injection of female Lewis rats with Mycobacterium butyricum. The effect of the thrombin inhibitor was compared with the effect of Indomethacin and the effect of a vehicle control.
Fifty 7.5 week old female Lewis rats (body weight 149-174 grams) were included in the study. Forty rats were each injected with an emulsion containing 0.5 mg of Mycobacterium butyricum in 0.1 ml of light mineral oil, and a negative control group of 10 rats was not injected with adjuvant.
Ten of the rats receiving Mycobacterium butyricum further received Indomethacin by oral gavage at a total daily dose of 1 mg/kg. Ten of the rats receiving Mycobacterium butyricum further received the thrombin inhibitor by oral gavage at a total daily dose of 50 mg/kg. Twenty of the rats receiving Mycobacterium butyricum further received a vehicle control of sterile distilled water.
Body weights, primary and secondary paw volumes, and lateral radiographs were determined before and at various time points including 21 days following adjuvant injection. The primary paw was injected with the Mycobacterium butyricum while the secondary (contralateral) paw was not injected. Paw volumes were determined by mercury displacement plethysmography. Lateral radiographs were obtained under Ketamine and Xylazine anesthesia.
Radiographs were made of both hind paws on days 0 and 21 and evaluated for changes in the soft and hard tissues. The following radiographic changes were graded numerically according to severity:increased soft tissue volume (0-4), narrowing or widening of joint spaces ([…]), subchondral erosion (0-3), periosteal reaction (0-4), osteolysis (0-4), subluxation (0-3), and degenerative joint changes (0-3). The maximum possible score for each foot was 26. High scores correspond with high levels of inflammation.

Cc1nc(N)ccc1CNC(=O)Cn1c(C)cnc(NCCc2ccccc2)c1=O [Thrombin inhibitor, 3-(2-phenylethylamino)-6-methyl-1-(2-amino-6-methyl-5-methylene-carboxamidomethylpyridinyl)-2-pyrazinone]
Radiographic total scores of secondary paws compared with vehicle treated rats, in words (versus vehicle): significantly less
Radiographic scores, Primary paws: 14.0 ± 3.3
Radiographic scores, Secondary paws: 3.8 ± 3.79
Increase in primary foot volume, Day 14: 1591 ± 318 µL
Increase in primary foot volume, Day 21: 1997 ± 605 µL
Effect on the primary paw (foot volume), in words (primary paw, thrombin inhibitor 50 mg/kg/day oral gavage): insignificant effect
Increase in secondary foot volume, Day 14: 382 ± 312 µL
Increase in secondary foot volume, Day 21: 704 ± 289 µL
Anti-inflammatory effect on the secondary paw (foot volume), in words (secondary paw, thrombin inhibitor 50 mg/kg/day oral gavage): significant anti-inflammatory effect

COc1ccc2c(c1)c(CC(=O)O)c(C)n2C(=O)c1ccc(Cl)cc1 [Indomethacin, reference compound]
Radiographic total scores of primary paws compared with vehicle treated rats, in words (day 21, primary paws, versus vehicle): significantly less
Radiographic total scores of secondary paws compared with vehicle treated rats, in words (versus vehicle): significantly less
Radiographic scores, Primary paws: 4.6 ± 1.6
Radiographic scores, Secondary paws: 3.5 ± 1.4
Increase in primary foot volume, Day 14: 726 ± 174 µL
Increase in primary foot volume, Day 21: 622 ± 156 µL
Increase in secondary foot volume, Day 14: 246 ± 162 µL
Increase in secondary foot volume, Day 21: 253 ± 138 µL
